Laboratory results taken from patent publication US20230040182A1, “ARYL HETEROBICYCLIC COMPOUNDS AS Kv1.3 POTASSIUM SHAKER CHANNEL BLOCKERS” (priority 2019, published 2023).

Assays:
hERG channel = target: T1, hERG channel (Homo sapiens, UniProt Q12809); experiment: hERG electrophysiology, automated whole-cell patch clamp (Patchliner); type: cell-based; conditions: CHO-K1 cells stably expressing hERG; whole-cell current, Hill fit
T1 construct: expressed in transfected cells
Method: Example 10. Evaluation of hERG Activities
This assay is used to evaluate the disclosed compounds' inhibition activities against the hERG channel.
CHO-K1 cells stably expressing hERG were grown in Ham's F-12 Medium with Glutamine containing 10% heat-inactivated FBS, 1% Penicillin/Streptomycin, Hygromycin (100 μg/ml) and G418 (100 μg/ml). Cells were grown in culture flasks at 37° C. in a 5% CO2-humidified incubator.
(§1) The cells were bathed in an extracellular solution containing 140 mM NaCl, 4 mM KCl, 2 mM CaCl2), 1 mM MgCl2, 5 mM Glucose, 10 mM HEPES; pH adjusted to 7.4 with NaOH; 295-305 mOsm. The internal solution contained 50 mM KCl, 10 mM NaCl, 60 mM KF, 20 mM EGTA, 10 mM HEPES; pH adjusted to 7.2 with KOH; 285 mOsm. All compounds were dissolved in DMSO at 30 mM. Compound stock solutions were freshly diluted with external solution to concentrations of 30 nM, 100 nM, 300 nM, 1 μM, 3 μM, 10 μM, 30 μM and 100 μM. The highest content of DMSO (0.3%) was present in 100 μM.
The voltage protocol (see Table B) was designed to simulate voltage changes during a cardiac action potential with a 300 ms depolarization to +20 mV (analogous to the plateau phase of the cardiac action potential), a repolarization for 300 ms to −50 mV (inducing a tail current) and a final step to the holding potential of −80 mV. The pulse frequency was 0.3 Hz. Control (compound-free) and compound pulse trains for each compound concentration applied contained 70 pulses.
(§2) Whole-cell current recordings and compound application were enabled by means of an automated patch clamp platform Patchliner (Nanion). EPC 10 patch clamp amplifier (HEKA) along with Patchmaster software (HEKA Elektronik Dr. Schulze GmbH) was used for data acquisition. Data were sampled at 10 kHz without filtering. Increasing compound concentrations were applied consecutively to the same cell without washouts in between.
(§3) AUC and PEAK values were obtained with Patchmaster (HEKA Elektronik Dr. Schulze GmbH). To determine IC50 the last single pulse in the pulse train corresponding to a given compound concentration was used. Obtained AUC and PEAK values in the presence of compound were normalized to control values in the absence of compound. Using Origin (OridinLab), IC50 was derived from data fit to Hill equation: Icompound/Icontrol=(100−A)/(1+([compound]/IC50)nH)+A, where IC50 is the concentration at which current inhibition is half-maximal, [compound] is the applied compound concentration, A is the fraction of current that is not blocked and nH is the Hill coefficient.

Kv1.3 potassium channel = target: T2, Kv1.3 potassium channel (Homo sapiens, UniProt P22001); experiment: Kv1.3 potassium channel blocker activity, automated whole-cell patch clamp (Patchliner); type: cell-based; conditions: CHO-K1 cells stably expressing Kv1.3; whole-cell current, Hill fit
T2 construct: expressed in transfected cells
Method: Example 9. Evaluation of Kv1.3 Potassium Channel Blocker Activities
This assay is used to evaluate the disclosed compounds' activities as Kv1.3 potassium channel blockers.
CHO-K1 cells stably expressing Kv1.3 were grown in DMEM containing 10% heat-inactivated FBS, 1 mM Sodium Pyruvate, 2 mM L-Glutamine and G418 (500 μg/ml). Cells were grown in culture flasks at 37° C. in a […] incubator.
as §1, with “CaCl2,” for “CaCl2),”
The currents were evoked by applying 100 ms depolarizing pulses from −90 mV (holding potential) to +40 mV were applied with 0.1 Hz frequency. Control (compound-free) and compound pulse trains for each compound concentration applied contained 20 pulses. 10-second breaks were used between pulse trains (see Table A below).
as §2, with “(Nanion Technologies GmbH).” for “(Nanion).”, “(HEKA Elektronik Dr. Schulze GmbH)” for “(HEKA)”, “filtering. Passive leak currents were subtracted online using a P/4 procedure (HEKA Elektronik Dr. Schulze GmbH).” for “filtering.”, “between. Total compound incubation time before the next pulse train was not longer than 10 seconds. Peak current inhibition was observed during compound equilibration.” for “between.”
as §3, with “AUC and peak values were” for “AUC and PEAK values were”, “To determine IC50, the last” for “To determine IC50 the last”, “AUC and peak values in” for “AUC and PEAK values in”, “where IC50 value is the” for “where IC50 is the”

T2 sequence (P22001 whole entry): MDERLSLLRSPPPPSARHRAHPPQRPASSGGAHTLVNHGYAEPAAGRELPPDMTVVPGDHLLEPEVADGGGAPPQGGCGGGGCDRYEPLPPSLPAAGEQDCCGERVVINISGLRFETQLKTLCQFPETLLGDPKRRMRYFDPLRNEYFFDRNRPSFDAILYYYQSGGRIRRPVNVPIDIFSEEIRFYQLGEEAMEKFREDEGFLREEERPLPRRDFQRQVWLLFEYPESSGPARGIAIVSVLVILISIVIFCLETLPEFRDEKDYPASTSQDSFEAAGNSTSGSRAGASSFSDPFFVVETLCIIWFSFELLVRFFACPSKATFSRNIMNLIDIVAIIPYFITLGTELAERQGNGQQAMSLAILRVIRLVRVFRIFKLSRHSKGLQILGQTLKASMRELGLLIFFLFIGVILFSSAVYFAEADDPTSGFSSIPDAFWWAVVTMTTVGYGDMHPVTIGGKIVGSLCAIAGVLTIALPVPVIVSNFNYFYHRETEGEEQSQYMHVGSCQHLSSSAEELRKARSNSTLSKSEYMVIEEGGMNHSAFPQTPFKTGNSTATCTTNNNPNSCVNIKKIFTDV
T1 sequence (Q12809 whole entry): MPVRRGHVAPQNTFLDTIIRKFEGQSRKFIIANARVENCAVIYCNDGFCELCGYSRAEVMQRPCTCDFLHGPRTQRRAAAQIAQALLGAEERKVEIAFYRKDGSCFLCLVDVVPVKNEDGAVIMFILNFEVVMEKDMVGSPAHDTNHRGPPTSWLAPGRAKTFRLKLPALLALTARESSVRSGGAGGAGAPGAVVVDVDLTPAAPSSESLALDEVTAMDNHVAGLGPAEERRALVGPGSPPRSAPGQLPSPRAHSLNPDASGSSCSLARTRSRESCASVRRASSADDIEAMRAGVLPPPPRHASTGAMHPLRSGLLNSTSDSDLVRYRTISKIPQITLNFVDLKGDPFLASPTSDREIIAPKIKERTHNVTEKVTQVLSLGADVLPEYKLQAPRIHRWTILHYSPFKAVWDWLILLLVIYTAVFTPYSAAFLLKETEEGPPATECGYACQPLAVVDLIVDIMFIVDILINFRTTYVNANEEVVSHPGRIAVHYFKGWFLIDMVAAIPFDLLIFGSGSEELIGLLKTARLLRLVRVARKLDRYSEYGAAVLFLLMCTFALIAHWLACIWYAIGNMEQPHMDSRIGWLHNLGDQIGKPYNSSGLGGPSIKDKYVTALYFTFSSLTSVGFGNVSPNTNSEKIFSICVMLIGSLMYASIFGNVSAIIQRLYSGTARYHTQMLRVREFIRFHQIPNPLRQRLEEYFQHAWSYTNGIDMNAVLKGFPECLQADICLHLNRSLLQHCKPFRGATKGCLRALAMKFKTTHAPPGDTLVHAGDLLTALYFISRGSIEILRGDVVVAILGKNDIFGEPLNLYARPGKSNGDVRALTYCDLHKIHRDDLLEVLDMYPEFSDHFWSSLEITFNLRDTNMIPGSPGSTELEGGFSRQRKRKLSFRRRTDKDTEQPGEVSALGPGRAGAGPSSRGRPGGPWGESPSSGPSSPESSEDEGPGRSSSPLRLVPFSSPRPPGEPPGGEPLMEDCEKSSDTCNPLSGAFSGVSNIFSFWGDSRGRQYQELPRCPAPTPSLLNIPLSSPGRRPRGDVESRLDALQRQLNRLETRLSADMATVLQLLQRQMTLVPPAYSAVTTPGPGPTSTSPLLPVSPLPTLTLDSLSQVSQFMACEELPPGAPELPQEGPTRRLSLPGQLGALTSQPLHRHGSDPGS

| Structure (SMILES) | IC50 (hERG channel) | IC50 (Kv1.3 potassium channel) |
| --- | --- | --- |
| COC[C@H]1NC(=O)[C@@H]2C[C@H](c3c(O)ccc(Cl)c3Cl)CCN2C1=O (relative stereo) [Compound 55, (8R,9aS)-rel-8-(2,3-dichloro-6-hydroxyphenyl)-3-((3R)-methoxymethyl)-hexahydro-2H-pyrido[1,2-a]pyrazine-1,4-dione] | > 30 µM | < 1000 nM |
| O=C1NC(=O)N2CC[C@H](c3c(O)ccc(Cl)c3Cl)C[C@@H]12 (single isomer, unassigned; diastereoisomer 1) [Compound 9, 7-(2,3-dichloro-6-hydroxyphenyl)tetrahydro-imidazo[1,5-a]pyridine-1,3(2H,5H)-dione diastereoisomer 1] | > 30 µM | < 1000 nM |
| O=C1[C@@H]2C[C@H](c3c(O)ccc(Cl)c3Cl)CCN2C(=O)CN1C1CC(O)C1 (single isomer, unassigned; isomer 1) [Compound 14, 8-(2,3-dichloro-6-hydroxyphenyl)-2-[3-hydroxycyclobutyl]-hexahydropyrido[1,2-a]pyrazine-1,4-dione isomer 1] | > 30 µM | < 1000 nM |
| O=C1[C@@H]2C[C@H](c3c(O)ccc(Cl)c3Cl)CCN2C(=O)CN1C1CC(O)C1 (single isomer, unassigned; isomer 2) [Compound 44, 8-(2,3-dichloro-6-hydroxyphenyl)-2-[3-hydroxycyclobutyl]-hexahydropyrido[1,2-a]pyrazine-1,4-dione isomer 2] | > 30 µM | < 1000 nM |
| O=C1[C@@H]2C[C@H](c3c(O)ccc(Cl)c3Cl)CCN2C(=O)[C@H]2C[C@H](O)CN12 (single isomer, unassigned; isomer 2) [Compound 65, 7-(2,3-dichloro-6-hydroxyphenyl)-2-hydroxyhexahydro-1H-pyrido[1,2-a]pyrrolo[1,2-d]pyrazine-5,11(5aH,11aH)-dione isomer 2] | < 30 µM | < 1000 nM |
| O=C1[C@@H]2C[C@H](O)CN2C(=O)[C@@H]2C[C@H](c3c(O)ccc(Cl)c3Cl)CCN12 (single isomer, unassigned; isomer 4) [Compound 35, 7-(2,3-dichloro-6-hydroxyphenyl)-2-hydroxyhexahydro-1H-pyrido[1,2-a]pyrrolo[1,2-d]pyrazine-5,11(5aH,11aH)-dione isomer 4] | < 30 µM | < 1000 nM |
| O=C1[C@@H]2C[C@H](c3c(O)ccc(Cl)c3Cl)CCN2C(=O)CN1C1CNC1 [Compound 1, (8R,9aS)-2-(azetidin-3-yl)-8-(2,3-dichloro-6-hydroxyphenyl)-octahydro-1H-pyrido[1,2-a]pyrazine-1,4-dione] | > 30 µM | < 1000 nM |
| O=C1N[C@H](CO)C(=O)N2CC[C@@H](c3c(O)ccc(Cl)c3Cl)C[C@@H]12 [Compound 2, (3R,8R,9aS)-8-(2,3-dichloro-6-hydroxyphenyl)-3-(hydroxymethyl)-hexahydro-2H-pyrido[1,2-a]pyrazine-1,4-dione] | > 30 µM | < 1000 nM |
| C[C@H](O)[C@H]1NC(=O)[C@@H]2C[C@H](c3c(O)ccc(Cl)c3Cl)CCN2C1=O [Compound 3, (3R,8R,9aS)-8-(2,3-dichloro-6-hydroxyphenyl)-3-[(1S)-1-hydroxyethyl]-hexahydro-2H-pyrido[1,2-a]pyrazine-1,4-dione] | > 30 µM | < 1000 nM |
| CN1C(=O)[C@@H]2C[C@H](c3c(O)ccc(Cl)c3Cl)CCN2C(=O)[C@H]1CO [Compound 6, (3R,8R,9aS)-8-(2,3-dichloro-6-hydroxyphenyl)-3-(hydroxymethyl)-2-methyl-hexahydropyrido[1,2-a]pyrazine-1,4-dione] | > 30 µM | < 1000 nM |
| O=C1NCCC(=O)N2CCC(c3c(O)ccc(Cl)c3Cl)CC12 (centres unmarked) [Compound 8, 9-(2,3-dichloro-6-hydroxyphenyl)-decahydropyrido[1,2-a][1,4]diazepine-1,5-dione] | > 30 µM | < 1000 nM |
| O=C1[C@H]2[C@@H](O)CCN2C(=O)[C@@H]2C[C@H](c3c(O)ccc(Cl)c3Cl)CCN12 [Compound 12, (1S,5aS,7R,11aR)-7-(2,3-dichloro-6-hydroxyphenyl)-1-hydroxyhexahydro-1H-pyrido[1,2-a]pyrrolo[1,2-d]pyrazine-5,11(5aH,11aH)-dione] | > 30 µM | < 1000 nM |
| C[C@@H](O)[C@H]1NC(=O)[C@@H]2C[C@H](c3c(O)ccc(Cl)c3Cl)CCN2C1=O [Compound 24, (3R,8R,9aS)-8-(2,3-dichloro-6-hydroxyphenyl)-3-[(1R)-1-hydroxyethyl]-hexahydro-2H-pyrido[1,2-a]pyrazine-1,4-dione] | > 30 µM | < 1000 nM |
| O=C1[C@@H]2C[C@H](c3c(O)ccc(Cl)c3Cl)CCN2C(=O)CN1CCO [Compound 26, (8R,9aS)-8-(2,3-dichloro-6-hydroxyphenyl)-2-(2-hydroxyethyl)-hexahydropyrido[1,2-a]pyrazine-1,4-dione] | > 30 µM | < 1000 nM |
| CC(C)[C@H](O)[C@H]1NC(=O)[C@@H]2C[C@H](c3c(O)ccc(Cl)c3Cl)CCN2C1=O [Compound 30, (3R,8R.9aS)-8-(2,3-dichloro-6-hydroxyphenyl)-3-[(1S)-1-hydroxy-2-methylpropyl]-hexahydro-2H-pyrido[1,2-a]pyrazine-1,4-dione] | > 30 µM | < 1000 nM |
| O=C1[C@@H]2C[C@H](c3c(O)ccc(Cl)c3Cl)CCN2C(=O)CN1C(CO)CO [Compound 32, (8R,9aS)-8-(2,3-dichloro-6-hydroxyphenyl)-2-(1,3-dihydroxypropan-2-yl)hexahydro-4H-pyrido[1,2-a]pyrazine-1,4(6H)-dione] | > 30 µM | < 1000 nM |
| CN1CC(=O)N2CCC(c3c(O)ccc(Cl)c3Cl)CC2C1=O (centres unmarked) [Compound 36, 8-(2,3-dichloro-6-hydroxyphenyl)-2-methyl-octahydro-1H-pyrido[1,2-a]pyrazine-1,4-dione] | > 30 µM | < 1000 nM |
| O=C1NCC(=O)N2CC[C@@H](c3c(O)ccc(Cl)c3Cl)C[C@@H]12 [Compound 41, (8R,9aS)-8-(2,3-dichloro-6-hydroxyphenyl)hexahydro-4H-pyrido[1,2-a]pyrazine-1,4(6H)-dione] | > 30 µM | < 1000 nM |
| O=C1[C@@H]2C[C@H](c3cc(Cl)c(Cl)cc3O)CCN2C(=O)CN1C1CNC1 [Compound 50, (8R,9aS)-2-(azetidin-3-yl)-8-(4,5-dichloro-2-hydroxyphenyl)hexahydro-4H-pyrido[1,2-a]pyrazine-1,4(6H)-dione] | > 30 µM | < 1000 nM |
